Substitutions are numbered along the chain they refer to.
Experiments:
IRAK4 = molecular target: T1, IRAK4 (Homo sapiens, UniProt Q9NWZ3); test: Reaction Biology NanoBRET target engagement assay in HEK-293 cells, IRAK4; conditions: NanoBRET IRAK4 IC50, HEK-293 cells
T1 sequence (Q9NWZ3 1-460): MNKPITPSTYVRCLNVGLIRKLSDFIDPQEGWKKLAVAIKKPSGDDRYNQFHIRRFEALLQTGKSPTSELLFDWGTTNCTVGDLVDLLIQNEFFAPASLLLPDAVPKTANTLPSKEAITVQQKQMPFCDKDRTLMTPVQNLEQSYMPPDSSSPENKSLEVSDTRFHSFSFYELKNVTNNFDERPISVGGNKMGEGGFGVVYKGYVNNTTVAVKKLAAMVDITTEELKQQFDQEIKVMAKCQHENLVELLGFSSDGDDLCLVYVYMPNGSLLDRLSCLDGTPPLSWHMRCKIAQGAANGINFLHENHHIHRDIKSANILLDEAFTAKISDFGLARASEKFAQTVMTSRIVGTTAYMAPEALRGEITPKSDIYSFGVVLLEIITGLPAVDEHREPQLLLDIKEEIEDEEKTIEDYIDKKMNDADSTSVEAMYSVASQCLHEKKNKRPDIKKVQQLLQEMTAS

IRAK1 = IRAK1 (Homo sapiens, UniProt P51617); test: DiscoverX KINOMEscan competition binding, IRAK1; set-up: purchased RBC (Reaction Biology) HotSpot assay
Chain of IRAK1 (P51617 whole entry): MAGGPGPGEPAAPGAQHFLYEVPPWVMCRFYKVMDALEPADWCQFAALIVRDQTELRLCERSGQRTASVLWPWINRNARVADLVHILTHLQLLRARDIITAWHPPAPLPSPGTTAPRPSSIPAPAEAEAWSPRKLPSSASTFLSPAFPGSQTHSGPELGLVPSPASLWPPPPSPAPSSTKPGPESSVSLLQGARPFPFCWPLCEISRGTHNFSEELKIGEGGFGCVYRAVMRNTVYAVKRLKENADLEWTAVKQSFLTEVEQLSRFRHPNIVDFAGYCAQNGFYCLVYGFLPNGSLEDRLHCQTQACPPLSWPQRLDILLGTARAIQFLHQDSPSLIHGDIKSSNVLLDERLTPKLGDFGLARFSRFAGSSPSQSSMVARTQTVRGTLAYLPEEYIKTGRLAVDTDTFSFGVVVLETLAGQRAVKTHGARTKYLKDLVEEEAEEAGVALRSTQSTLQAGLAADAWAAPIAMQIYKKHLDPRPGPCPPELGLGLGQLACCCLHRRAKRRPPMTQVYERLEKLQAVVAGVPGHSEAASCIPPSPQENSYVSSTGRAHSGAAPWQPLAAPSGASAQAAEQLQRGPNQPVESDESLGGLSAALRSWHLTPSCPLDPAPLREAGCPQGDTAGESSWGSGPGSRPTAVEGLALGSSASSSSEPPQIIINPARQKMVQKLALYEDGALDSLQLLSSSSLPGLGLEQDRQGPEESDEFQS

FLT3 N841I = molecular target: T2, FLT3 N841I (Homo sapiens, UniProt P36888, N841I); test: DiscoverX KINOMEscan competition binding, FLT3 N841I
T2 construct: purchased DiscoverX (KINOMEscan)
T2 sequence (P36888 27-993 N841I): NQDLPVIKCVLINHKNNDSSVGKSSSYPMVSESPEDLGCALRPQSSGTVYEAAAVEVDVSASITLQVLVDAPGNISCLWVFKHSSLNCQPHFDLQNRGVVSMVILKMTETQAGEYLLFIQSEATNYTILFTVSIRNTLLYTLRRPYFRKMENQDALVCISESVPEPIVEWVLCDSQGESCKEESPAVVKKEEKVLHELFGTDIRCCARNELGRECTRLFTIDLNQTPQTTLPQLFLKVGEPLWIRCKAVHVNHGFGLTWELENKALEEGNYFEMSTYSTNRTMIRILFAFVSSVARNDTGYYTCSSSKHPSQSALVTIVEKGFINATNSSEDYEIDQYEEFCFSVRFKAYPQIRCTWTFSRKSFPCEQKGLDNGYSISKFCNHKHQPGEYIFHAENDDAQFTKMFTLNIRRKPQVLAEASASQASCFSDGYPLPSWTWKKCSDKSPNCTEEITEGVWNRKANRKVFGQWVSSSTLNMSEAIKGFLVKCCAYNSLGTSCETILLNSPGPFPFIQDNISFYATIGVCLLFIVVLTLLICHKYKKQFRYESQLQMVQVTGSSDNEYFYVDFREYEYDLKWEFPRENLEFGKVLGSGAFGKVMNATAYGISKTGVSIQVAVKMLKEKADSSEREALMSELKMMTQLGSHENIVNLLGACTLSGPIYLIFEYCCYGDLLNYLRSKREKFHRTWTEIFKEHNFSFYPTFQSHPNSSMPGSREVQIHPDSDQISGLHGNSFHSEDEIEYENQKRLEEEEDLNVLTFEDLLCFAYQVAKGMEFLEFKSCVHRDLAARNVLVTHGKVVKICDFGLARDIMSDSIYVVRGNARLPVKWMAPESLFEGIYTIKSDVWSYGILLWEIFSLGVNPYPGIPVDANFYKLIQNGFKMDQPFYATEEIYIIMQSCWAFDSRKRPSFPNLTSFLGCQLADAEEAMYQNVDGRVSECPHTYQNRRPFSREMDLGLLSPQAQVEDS

MOLM14 F691L cells = test: cells; assay type: cell-based; conditions: Homo sapiens, MOLM-14, 48 h, 48 hours, Cell Titer Glo; read-out: MOLM14 F691L IC50
FLT3 R834Q = molecular target: T3, FLT3 R834Q (Homo sapiens, UniProt P36888, R834Q); test: DiscoverX KINOMEscan competition binding, FLT3 R834Q
T3 construct: purchased DiscoverX (KINOMEscan)
T3 sequence (P36888 27-993 R834Q): T2 sequence (P36888 27-993 N841I) with R808Q, I815N

Compound	IC50 (IRAK4) [nM]	Kd (IRAK1) [nM]	Kd (FLT3 N841I) [nM]	IC50 (MOLM14 F691L cells) [nM]	Kd (FLT3 R834Q) [nM]
COc1cc2ncc(-c3ccnc(N[C@H]4CNCC[C@@H]4F)n3)n2nc1C1CC1 [Compound 51, 4-(6-cyclopropyl-7-methoxyimidazo[1,2-b]pyridazin-3-yl)-N-((3S,4S)-4-fluoropiperidin-3-yl)pyrimidin-2-amine]	1	2.4	0.62	122	1.1
COc1cc2ncc(-c3ccnc(N[C@H]4CNC[C@@H]4F)n3)n2nc1C1CC1 [Compound 49, 4-(6-cyclopropyl-7-methoxyimidazo[1,2-b]pyridazin-3-yl)-N-((3S,4S)-4-fluoropyrrolidin-3-yl)pyrimidin-2-amine]		2.6	0.61	307	1.4
CC(O)(c1cn2c(-c3ccnc(N[C@H]4CNCC[C@@H]4F)n3)cnc2cn1)C(F)(F)F (single isomer, unassigned) [Compound 72]	< 0.5	1.5	7.4	433	14
COc1cc2ncc(-c3cncc(N[C@H]4CNCC[C@@H]4F)n3)n2nc1C1CC1 [Compound 24, 6-(6-cyclopropyl-7-methoxyimidazo[1,2-b]pyridazin-3-yl)-N-((3S,4S)-4-fluoropiperidin-3-yl)pyrazin-2-amine]	1	5.3	0.51		1.8
COc1cc2ncc(-c3cncc(N[C@H]4CNC[C@@H]4F)n3)n2nc1C1CC1 [Compound 22, 6-(6-cyclopropyl-7-methoxyimidazo[1,2-b]pyridazin-3-yl)-N-((3S,4S)-4-fluoropyrrolidin-3-yl)pyrazin-2-amine]	9	6.4	5.6		9.3
F[C@H]1CCNC[C@@H]1Nc1cncc(-c2cnc3cc(OC4CC4)ccn23)n1 [Compound 12, 6-(7-cyclopropoxyimidazo[1,2-a]pyridin-3-yl)-N-((3S,4S)-4-fluoropiperidin-3-yl)pyrazin-2-amine]	1	7.5	4.7	86	18
COc1cc2ncc(-c3ccnc(N[C@@H]4CCCNC4)n3)n2cc1C(C)(C)O [Compound 44, (R)-2-(7-methoxy-3-(2-(piperidin-3-ylamino)pyrimidin-4-yl)imidazo[1,2-a]pyridin-6-yl)propan-2-ol]	< 0.5	0.3	0.97	86	1.4
COc1cc2ncc(-c3ccnc(N[C@@H]4CCCNC4)n3)n2nc1C1CC1 [Compound 50, (R)-4-(6-cyclopropyl-7-methoxyimidazo[1,2-b]pyridazin-3-yl)-N-(piperidin-3-yl)pyrimidin-2-amine]				172	
